Holding throughout (format): biochemical
For assay [1], the target named is recombinant JAK1 (amino acids 866-1154) (Homo sapiens (Human), UniProt P23458). Briefly: Enzyme inhibition studies, JAK1 (peptide phosphorylation, Caliper LC3000). To be noted: ATP concentration not given (assayed at ATP Km 55 μM and at 5 mM). Here is the method: (§1) Enzyme inhibition studies were performed using recombinant JAK1 (amino acids 866-1154, Life Technologies, #PV4774, Carlsbad, Calif.), JAK2 (amino acids 831-1132), or JAK3 (amino acids 781-1124) under buffer conditions of 50 mM HEPES pH 7.3, 1 mM DTT, 0.01% Tween® 20, 50 μg/mL BSA, and 10 mM MgCl2. JAK enzyme was expressed as an N-terminal GST fusion in insect cells and purified by glutathione-affinity and size-exclusion chromatographies. […] Phosphorylated and unphosphorylated peptides were separated and quantified by a Caliper LC3000 system (Caliper Life Sciences, MA) for calculating percent inhibition.

For assay [2], the target named is recombinant JAK3 (amino acids 781-1124) (Homo sapiens (Human), UniProt P52333). Kind of assay: Enzyme inhibition studies, JAK3 (peptide phosphorylation, Caliper LC3000). The note with it: ATP concentration of the tabulated values not stated (assayed at ATP Km 3 μM and at 5 mM). Here is the method:
as §1

Assay [3] deals with recombinant JAK2 (amino acids 831-1132) (Homo sapiens (Human), UniProt O60674). Kind of assay: Enzyme inhibition studies, JAK2 (peptide phosphorylation, Caliper LC3000). The note with it: ATP concentration of the tabulated values not stated (assayed at ATP Km 15 μM and at 5 mM). Here is the method:
as §1

Molecules are shown by their SMILES.

recombinant JAK3 (amino acids 781-1124), sequence (P52333 781-1124): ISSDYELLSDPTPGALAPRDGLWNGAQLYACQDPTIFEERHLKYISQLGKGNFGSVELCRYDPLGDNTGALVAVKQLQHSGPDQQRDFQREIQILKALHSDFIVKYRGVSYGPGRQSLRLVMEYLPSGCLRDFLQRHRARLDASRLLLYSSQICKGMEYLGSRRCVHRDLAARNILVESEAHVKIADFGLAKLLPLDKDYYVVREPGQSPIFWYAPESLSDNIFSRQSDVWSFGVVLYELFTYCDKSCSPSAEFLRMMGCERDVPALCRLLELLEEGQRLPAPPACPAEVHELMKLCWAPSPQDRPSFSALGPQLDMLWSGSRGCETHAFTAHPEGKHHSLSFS
recombinant JAK1 (amino acids 866-1154), sequence (P23458 866-1154): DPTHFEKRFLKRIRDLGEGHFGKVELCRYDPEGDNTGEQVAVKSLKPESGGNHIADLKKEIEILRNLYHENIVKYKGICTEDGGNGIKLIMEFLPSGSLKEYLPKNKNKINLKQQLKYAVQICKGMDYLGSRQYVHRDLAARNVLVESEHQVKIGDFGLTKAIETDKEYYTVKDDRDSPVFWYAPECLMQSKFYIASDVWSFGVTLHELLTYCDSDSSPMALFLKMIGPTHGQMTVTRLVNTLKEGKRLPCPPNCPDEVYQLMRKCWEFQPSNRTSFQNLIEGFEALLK
recombinant JAK2 (amino acids 831-1132), sequence (O60674 831-1132): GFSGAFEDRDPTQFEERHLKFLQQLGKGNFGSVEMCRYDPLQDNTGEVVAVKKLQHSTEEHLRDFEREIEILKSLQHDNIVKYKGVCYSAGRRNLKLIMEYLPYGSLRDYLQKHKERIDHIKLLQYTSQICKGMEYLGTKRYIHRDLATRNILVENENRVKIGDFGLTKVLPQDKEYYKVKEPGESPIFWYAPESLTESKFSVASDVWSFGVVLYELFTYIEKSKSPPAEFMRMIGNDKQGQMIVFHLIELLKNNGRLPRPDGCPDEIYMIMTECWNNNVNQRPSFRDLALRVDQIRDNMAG

By IC50 is commonly meant the point on the concentration scale where inhibition reaches its midpoint. With `COCCN1CCN([C@H](C)C(=O)Nc2cccc3c(-c4nc(Nc5cn(C)nc5OC)ncc4C)c[nH]c23)CC1` [Example 17, (2R)-2-[4-(2-methoxyethyl)piperazin-1-yl]-N-(3-{2-[(3-methoxy-1-methyl-1H-pyrazol-4-yl)amino]-5-methylpyrimidin-4-yl}-1H-indol-7-yl)propanamide], the IC50 was 0.107 µM in assay [1], > 30 µM in assay [2] and 18.1 µM in assay [3].
For the compound `COc1nn(C)cc1Nc1ncc(C)c(-c2c[nH]c3c(NC(=O)[C@@H](C)N4CCN(C)[C@H](C)C4)cccc23)n1` [Example 18, (2R)-2-[(3R)-3,4-dimethylpiperazin-1-yl]-N-(3-{2-[(3-methoxy-1-methyl-1H-pyrazol-4-yl)amino]-5-methylpyrimidin-4-yl}-1H-indol-7-yl)propanamide], the IC50 in assay [1] was 0.057 µM; in assay [2], > 30 µM; in assay [3], 17.3 µM.
On to `COc1nn(C)cc1Nc1ncc(C)c(-c2c[nH]c3c(NC(=O)[C@@H](C)N4CCN(C)C[C@@H]4C)cccc23)n1` [Example 19, (2R)-2-[(2S)-2,4-dimethylpiperazin-1-yl]-N-(3-{2-[(3-methoxy-1-methyl-1H-pyrazol-4-yl)amino]-5-methylpyrimidin-4-yl}-1H-indol-7-yl)propanamide], for which the IC50 was 0.296 µM in assay [1], > 30 µM in assay [2] and > 30 µM in assay [3].
With `CCOc1nn(C)cc1Nc1ncc(C)c(-c2c[nH]c3c(NC(=O)[C@@H](C)N4CCN(CC)CC4)cccc23)n1` [Example 20, (2R)-N-(3-{2-[(3-ethoxy-1-methyl-1H-pyrazol-4-yl)amino]-5-methylpyrimidin-4-yl}-1H-indol-7-yl)-2-(4-ethylpiperazin-1-yl)propanamide], the IC50 is 0.051 µM in assay [1], > 30 µM in assay [2] and 17.2 µM in assay [3].
As for `CCOc1nn(C)cc1Nc1ncc(C)c(-c2c[nH]c3c(NC(=O)[C@@H](C)N4CCN(CCOC)CC4)cccc23)n1` [Example 21, (2R)-N-(3-{2-[(3-ethoxy-1-methyl-1H-pyrazol-4-yl)amino]-5-methylpyrimidin-4-yl}-1H-indol-7-yl)-2-[4-(2-methoxyethyl)piperazin-1-yl]propanamide], the IC50 in assay [1] was 0.184 µM; in assay [2], > 30 µM; in assay [3], > 30 µM.
Consider `CCOc1nn(C)cc1Nc1ncc(C)c(-c2c[nH]c3c(NC(=O)[C@@H](C)N4CCN(C)C[C@@H]4C)cccc23)n1` [Example 22, (2R)-2-[(2S)-2,4-dimethylpiperazin-1-yl]-N-(3-{2-[(3-ethoxy-1-methyl-1H-pyrazol-4-yl)amino]-5-methylpyrimidin-4-yl}-1H-indol-7-yl)propanamide], for which the values for the IC50 in assay [1], in assay [2] and in assay [3] were 0.49 µM, > 30 µM and > 30 µM, respectively.
Consider `CCOc1nn(C)cc1Nc1ncc(C)c(-c2c[nH]c3c(NC(=O)[C@@H](C)N4CCN(C)C[C@H]4C)cccc23)n1` [Example 23, (2R)-2-[(2R)-2,4-dimethylpiperazin-1-yl]-N-(3-{2-[(3-ethoxy-1-methyl-1H-pyrazol-4-yl)amino]-5-methylpyrimidin-4-yl}-1H-indol-7-yl)propanamide], for which the results for the 50% inhibitory concentration (IC50) in assay [1], in assay [2] and in assay [3] were 0.029 µM, > 30 µM and 25.7 µM, respectively.
The corresponding values for `CCOc1nn(C)cc1Nc1ncc(C)c(-c2c[nH]c3c(NC(=O)[C@@H](C)N4CCN(C)[C@H](C)C4)cccc23)n1` [Example 24, (2R)-2-[(3R)-3,4-dimethylpiperazin-1-yl]-N-(3-{2-[(3-ethoxy-1-methyl-1H-pyrazol-4-yl)amino]-5-methylpyrimidin-4-yl}-1H-indol-7-yl)propanamide] are 0.113 µM, > 30 µM and > 30 µM.

For the origin of these results see patent US9714236B2, “Compounds and methods for inhibiting JAK” (AstraZeneca AB, priority 2015, dated 2017).
